The target in series [1] is T1, CD137 (Homo sapiens, UniProt Q07011). In words: CD137 reporter assay (Promega CD137 luciferase reporter, Jurkat cells) in co-culture with Nectin-4-expressing tumor cells. The class given is cell-based. More on the design: host or cells: Jurkat reporter cells. To be noted: co-culture with HT1376; Table 2A. In general terms: A reporter such as luciferase makes a cellular process visible.

The subject of another series is human PBMCs. In words: Human PBMC co-culture cytokine secretion assay with EphA2-expressing tumor cells (MC38, HT-1080, HT29). The class given is cell-based. The method, then: […] MC38 were cultured in Dulbecco's Modified Eagle Medium supplemented with 10% heat inactivated Fetal Bovine Serum (FBS), 1× Penicillin/Streptomycin, 10 mM HEPES, and 2 mM L-Glutamine (referred to as R10 medium). Frozen PBMCs from healthy human donors were thawed and washed once in room temperature PBS with benzonase, and then resuspended in RPMI supplemented with 10% heat inactivated Fetal Bovine Serum (FBS), 1× Penicillin/Streptomycin, 10 mM HEPES, and 2 mM L-Glutamine (herein referred to as R10 medium). 100 μl of PBMCs (1,000,000 PBMCs/ml) and 100 μl of tumor cells (100,000 tumor cells/ml) (Effector:Target cell ratio (E:T) 10:1) were plated in each well of a 96 well flat bottom plate for the co-culture assay. 100 ng/ml of soluble anti-CD3 mAb (clone OKT3) was added to the culture on day 0 to stimulate human PBMCs. Test, control compounds, or vehicle controls were diluted in R10 media and 50 μL was added to respective wells to bring the final volume per well to 250 μL. Plates were covered with a breathable film and incubated in a humidified chamber at 37° C. with 5% CO2 for two days. […] Briefly, the standards and samples were added to a black 96 well plate. Microparticle cocktail (provided in Luminex kit, R&D Systems) was added and shaken for 2 hours at room temperature. The plate was washed 3 times using a magnetic holder. Biotin cocktail was then added to the plate and shaken for 1 hour at RT. The plate was washed 3 times using a magnetic holder. Streptavidin cocktail was added to the plate and shaken for 30 minutes at RT. The plates were washed 3 times using a magnetic holder, resuspended in 100 μL of wash buffer, shaken for 2 minutes at RT, and read using the Luminex 2000. Raw data were analyzed using built-in Luminex software to generate standard curves and interpolate protein concentrations, all other data analyses and graphing were performed using Excel and Prism software. Data represents one study with three independent donor PBMCs tested in experimental duplicates.
Similarly, PBMCs from healthy donors were co-cultured with EphA2 expressing cancer cells (MC38 and HT-1080) at a ratio of 5:1 in presence of anti-CD3 and BCY13272. […]

A short description of series [2]: Pharmacokinetics in CD1 mice. To be noted: mouse, in vivo; mice, after IP injection; read-out: circulating plasma half-life (converted). It counts as in vivo, CD-1 mice. The method, then:
(§1) Serial bleeding (about 80 μL blood/time point) was performed via submandibular or saphenous vein at each time point. All blood samples were immediately transferred into prechilled microcentrifuge tubes containing 2 μL K2-EDTA (0.5M) as anti-coagulant and placed on wet ice. Blood samples were immediately processed for plasma by centrifugation at approximately 4° C., 3000 g. The precipitant including internal standard was immediately added into the plasma, mixed well and centrifuged at 12,000 rpm, 4° C. for 10 minutes. The supernatant was transferred into pre-labeled polypropylene microcentrifuge tubes, and then quick-frozen over dry ice. The samples were stored at […] or below as needed until analysis. 7.5 μL of the supernatant samples were directly injected for LC-MS/MS analysis using an Orbitrap Q Exactive in positive ion mode to determine the concentrations of analyte. Plasma concentration versus time data were analyzed by non-compartmental approaches using the Phoenix WinNonlin 6.3 software program. C0, CI, Vdss, T½, AUC(0-last), AUC(0-inf), MRT(0-last), MRT(0-inf) and graphs of plasma concentration versus time profile were reported.

Series [3] can be described thus: Pharmacokinetics in SD rats. The class given is in vivo. To be noted: rat, in vivo, IV Bolus. The method, then:
as §1, with “Male SD Rats were dosed with each heterotandem Bicycle peptide complex formulated in 25 mM Histidine HCl, 10% sucrose pH 7 by IV bolus or IV infusion (15 minutes). Serial” for “Serial”

A short description of series [4]: Pharmacokinetics in cynomolgus monkey. To be noted: in vivo, IV infusion (15 min), 1 mg/kg. The class given is in vivo. The method, then: Serial bleeding (about 1.2 ml blood/time point) was performed from a peripheral vessel from restrained, non-sedated animals at each time point into a commercially available tube containing Potassium (K2) EDTA*2H2O (0.85-1.15 mg) on wet ice and processed for plasma. Samples were centrifuged (3,000×g for 10 minutes at 2 to 8° C.) immediately after collection. 0.1 mL plasma was transferred into labelled polypropylene micro-centrifuge tubes. 5-fold of the precipitant including internal standard 100 ng/mL Labetalol & 100 ng/mL dexamethasone & 100 ng/mL tolbutamide & 100 ng/mL Verapamil & 100 ng/mL Glyburide & 100 ng/mL Celecoxib in MeOH was immediately added into the plasma, mixed well and centrifuged at 12,000 rpm for 10 minutes at 2 to 8° C. Samples of supernatant were transferred into the pre-labeled polypropylene microcentrifuge tubes, and frozen over dry ice. The samples were stored at −60° C. or below until LC-MS/MS analysis. An aliquot of 40 μL calibration standard, quality control, single blank and double blank samples were added to the 1.5 mL tube. Each sample (except the double blank) was quenched with 200 μL IS1 respectively (double blank sample was quenched with 200 μL MeOH with 0.5% tritonX-100), and then the mixture was vortex-mixed well (at least 15 s) with vortexer and centrifuged for 15 min at 12000 g, 4° C. A 10 μL supernatant was injected for LC-MS/MS analysis using an Orbitrap Q Exactive in positive ion mode to determine the concentrations of analyte. Plasma concentration versus time data were analyzed by non-compartmental approaches using the Phoenix WinNonlin 6.3 software program. C0, CI, Vdss, T½, AUC(0-last), AUC(0-inf), MRT(0-last), MRT(0-inf) and graphs of plasma concentration versus time profile were reported.

In series [5] the target is T1, CD137. In words: CD137 reporter assay (Promega, Jurkat cells) in co-culture with EphA2-expressing tumor cells (A549, PC3, HT29). The class given is cell-based. Also noted: host or cells: Jurkat reporter cells. An outline of the steps:
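Readout is Bio-Glo luminescence after 6 h, 37° C co-culture of CD137 reporter Jurkat cells, target tumor cells (EphA2: A549, PC3, HT29; PD-L1: RKO) and titrated test articles in 1% FBS RPMI. EC50 (nM) and maximal induction come from fold change over untreated co-culture.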

Where two headings read alike, the source gives them in different places. Starred links: 1 amine or outer side, 2 acyl side, 3 side chain; linkers in the order of their positions; H or OH if unused. Positions of bridges follow the written chain, without caps; N, C: chain ends. Non-standard residues stand in square brackets, D forms with d. Chains are numbered I, II in the order given. X1 = O=C(CCOCCOCCOCCN(CCOCCOCCOCCn1cc(CCC(=O)[*:2])nn1)CCOCCOCCOCCn1cc(CCC(=O)[*:3])nn1)[*:1]; TATA = O=C(CC[*:1])N1CN(C(=O)CC[*:2])CN(C(=O)CC[*:3])C1; Dip = N[C@H](C(=O)O)C(c1ccccc1)c1ccccc1; Hyp = O=C(O)[C@@H]1C[C@@H](O)CN1; hArg = N=C(N)NCCCC[C@H](N)C(=O)O; tBuAla = CC(C)(C)C[C@H](N)C(=O)O; Nle = CCCC[C@H](N)C(=O)O

T1 sequence (Q07011 24-255): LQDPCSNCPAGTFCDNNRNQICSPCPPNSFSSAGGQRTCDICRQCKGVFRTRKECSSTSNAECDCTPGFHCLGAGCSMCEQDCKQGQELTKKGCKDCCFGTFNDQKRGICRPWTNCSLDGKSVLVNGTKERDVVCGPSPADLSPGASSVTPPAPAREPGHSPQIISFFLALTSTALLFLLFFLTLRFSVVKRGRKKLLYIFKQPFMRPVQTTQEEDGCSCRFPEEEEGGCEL

Take `CCCC[C@@H]1NC(=O)[C@H](Cc2ccc(O)cc2)NC(=O)[C@@H]2CCCN2C(=O)[C@H](CC(=O)O)NC(=O)[C@H](C)NC(=O)[C@H](Cc2ccccc2)NC(=O)[C@@H]2CSCCC(=O)N3CN(CN(C3)C(=O)CCSC[C@@H](C(=O)N[C@@H](C)C(N)=O)NC1=O)C(=O)CCSC[C@H](NC(C)=O)C(=O)N[C@@H](CC(C)(C)C)C(=O)N1CCC[C@H]1C(=O)N[C@@H](CCC(=O)O)C(=O)N[C@H](CCCCNC(=O)CCc1cn(CCOCCOCCOCCN(CCOCCOCCOCCC(=O)N[C@H]3CSCCC(=O)N4CN5CN(C4)C(=O)CCSC[C@H](NC(=O)[C@@H](CC(=O)O)NC(=O)[C@H](Cc4cccc6ccccc46)NC(=O)[C@@H]4CCCN4C3=O)C(=O)N[C@@H](CCSC)C(=O)N[C@@H](CCCCNC(=N)N)C(=O)N[C@@H](CC(=O)O)C(=O)N[C@@H](Cc3c[nH]c4ccccc34)C(=O)N[C@@H](CO)C(=O)N[C@@H]([C@@H](C)O)C(=O)N3CCC[C@H]3C(=O)N3C[C@H](O)C[C@H]3C(=O)N[C@@H](Cc3c[nH]c4ccccc34)C(=O)N[C@H](C(N)=O)CSCCC5=O)CCOCCOCCOCCn3cc(CCC(=O)NCCCC[C@H]4NC(=O)[C@H](CCC(=O)O)NC(=O)[C@@H]5CCCN5C(=O)[C@H](CC(C)(C)C)NC(=O)[C@@H](NC(C)=O)CSCCC(=O)N5CN6CN(C5)C(=O)CCSC[C@H](NC(=O)[C@H](Cc5ccc(O)cc5)NC(=O)[C@@H]5CCCN5C4=O)C(=O)N[C@@H](Cc4ccccc4)C(=O)N[C@@H](C)C(=O)N[C@@H](CC(=O)O)C(=O)N4CCC[C@H]4C(=O)N[C@@H](Cc4ccc(O)cc4)C(=O)N[C@@H](CCCC)C(=O)N[C@H](C(=O)N[C@@H](CCCCNC(=O)c4ccc(-c5c7ccc(=N)c(S(=O)(=O)O)c-7oc7c(S(=O)(=O)O)c(N)ccc57)c(C(=O)O)c4)C(N)=O)CSCCC6=O)nn3)nn1)C(=O)N1CCC[C@H]1C(=O)N[C@@H](Cc1ccc(O)cc1)C(=O)N2` [BCY13583]: the Emax on CD137 [1] is 63 fold induction over background.
For the compound “I: A[hArg]DC[Hyp]LVNPLCLHP[dD]W[hArg]C-NH2 / II: Ac-C[tBuAla]PE[dK]PYCFADPY[Nle]CA-NH2 / III: Ac-C[tBuAla]PE[dK]PYCFADPY[Nle]CA-NH2 (linker I:4-I:11-I:18, II:1-II:8-II:15, III:1-III:8-III:15 via TATA; linker I:N-II:5-III:5 via X1) [BCY12491]”, the EC50 (usually the concentration that produces a half-maximal response) with human PBMCs (MC38 co-culture, donor 228711, read-out: EC50 of IFN-γ cytokine secretion) was 0.085 nM; in the series on human PBMCs (MC38 co-culture, donor 228769, read-out: EC50 of IFN-γ cytokine secretion), 0.034 nM. Further, the half-life was 2.5 h in series [2]; 1.3 h in series [3] (iv, read-out: T1/2 (converted)); 3.2 h in series [4] (read-out: T1/2 (converted)). For the same compound, the results for the clearance in series [3] (read-out: Clp) and in series [4] (read-out: Clp) were 20 mL/min/kg and 3 mL/min/kg, respectively. The Vd was 1.6 L/kg in series [3] (read-out: Vdss) and 0.36 L/kg in series [4] (read-out: Vdss).
Regarding “I: A[hArg]DC[Hyp]LVNPLCL[Dip]P[dD]WTC-NH2 / II: Ac-C[tBuAla]PE[dK]PYCFADPY[Nle]CA-NH2 / III: Ac-C[tBuAla]PE[dK]PYCFADPY[Nle]CA-NH2 (linker I:4-I:11-I:18, II:1-II:8-II:15, III:1-III:8-III:15 via TATA; linker I:N-II:5-III:5 via X1) [BCY13047]”, the “Emax (fold induction over background)” value on CD137 [5] (CD137 reporter coculture assay with PC3 tumor cells) was determined as 46.43. Moreover, the EC50 is 0.07 nM on CD137 [5] (EC50, CD137 reporter coculture assay with PC3 tumor cells); 0.31 nM in the series on human PBMCs (human PBMC-MC38 co-culture, Donor 1, 48 h incubation, read-out: Donor 1 EC50 of IFNγ secretion); 0.3 nM with human PBMCs (human PBMC-MC38 co-culture, Donor 2, 48 h incubation, read-out: Donor 2 EC50 of IFNγ secretion).

For the origin of these results see patent publication US20230129258A1, “HETEROTANDEM BICYCLIC PEPTIDE COMPLEXES” (BicycleTx Limited, priority 2019, published 2023).
